Values belong to the compound of their own block, whether it stands above or below them.
Columns and labels:
[1] = Antitumor activity against human melanoma cells assessed as increase in survival of patient at […], po administered BID; type: functional; details: Melanoma cell
[2] = Toxicity in po dosed cancer patient bearing B-Raf V600E mutation administered BID; type: organism-based; details: human, in vivo
[3] = Antitumor activity against human melanoma cells harboring patient assessed as increase in survival of patient at 1000 mg/kg, iv administered 3 times a week; type: functional; details: Melanoma cell
HCT-116 = assay: Growth inhibition of human HCT116 cells expressing wild-type B-Raf and K-Ras2 G13D mutant after 72 hrs by WST-1 assay; type: functional, cell-based; details: HCT-116, 72 h
SK-MEL-2 = assay: Growth inhibition of human SK-MEL-2 cells expressing wild-type B-Raf and N-Ras2 Q61R mutant after 72 hrs by WST-1 assay; type: functional, cell-based; details: SK-MEL-2, 72 h

SMILES: CCCS(=O)(=O)Nc1ccc(F)c(C(=O)c2c[nH]c3ncc(-c4ccc(Cl)cc4)cc23)c1F [VEMURAFENIB]
- survival [1]: 84%
- MTD [2]: 960 mg

SMILES: CC(C)(C)c1nc(-c2cccc(NS(=O)(=O)c3c(F)cccc3F)c2F)c(-c2ccnc(N)n2)s1 [DABRAFENIB]
- survival at 1000 mg/kg [3]: 64%

- EC50 (HCT-116): 1.1 µM
- EC50 (SK-MEL-2): 1.1 µM
SMILES: CN(C)CCOc1ccc(-c2nc(-c3ccncc3)c(-c3ccc4c(c3)CC/C4=N\O)[nH]2)cc1 [SB590885]
